The values that follow come from EP1132382A1, “3-Oxy-7-sulfamyl-3,4-dihydro-1,2,4-benzothiadazine-1,1-dioxide derivatives having diuretic and/or natriuretic activity” (Farma Invent B.V., priority 2000, dated 2001).

Series [1] can be described thus: Hydrolysis of epithiazide to hydroxyhydrothiazide in aqueous phosphate buffer. The conditions noted are these: 0.067 m phosphate buffer, pH=7, 37°C, 0.067 M aqueous phosphate buffer, read-out: epithiazide cleaved into hydroxyhydrothiazide. It is filed as physicochemical. The procedure:
Figure 1: Hydrolysis of epithiazide to hydroxyhydrothiazide under various temperatures and pH in a 0.067 M phosphate buffer.
Epithiazide was contacted with an aqueous phosphate buffer of 0.067 M at two different temperatures (RT and 37°C), at different pHs, ranging from 5,2 to 13.

Series [2] is described as follows: Bioavailability study of epithiazide in healthy volunteers. The series is classed as in vivo.
Series [3] in a line: pKa of isolated hydroxyhydrothiazide. It is filed as physicochemical. As to conditions: isolated and purified product. The procedure: The hydroxyhydrothiazide was synthesised by the hydrolysis of epithiazide. Conversion to hydroxyhydrothiazide was completed in 72 hours at 37 °C in a 0.067 M phosphate buffer.
Series [4] is described as follows: Intravenous administration to dogs: elimination and urine production. As to conditions: 0.08-0.4 mg/kg. It is filed as in vivo. How it is done:
The pharmacotherapeutic activity of the hydroxyhydrothiazides has been evaluated. The natriuretic an/or diuretic activity has been determined by testing on animals and healthy volunteers.
The elimination from the body was monitored for 48 hours. […] The diuretic effect was monitored by measuring the urine production.

Where [5] appears, read: after administration of a suitable dose of epithiazide.

For `NS(=O)(=O)c1cc2c(cc1Cl)NC(CSCC(F)(F)F)NS2(=O)=O` (centres unmarked) [epithiazide], in series [1], the degraded at 10 h is > 80%. Moreover, in series [2] (setting [5]), the “detection in the plasma” value is “no epithiazide could be detected” and the “detection in the urine” value is recorded as “detected”.
Broadly, the pKa is the negative logarithm of the acid dissociation constant. The molecule `NS(=O)(=O)c1cc2c(cc1Cl)NC(O)NS2(=O)=O` (centres unmarked) [hydroxyhydrothiazide] showed a pKa in series [3] of 9.5. Moreover, in series [4], the “distribution of the compound throughout the body” value is on record as “rapid distribution” and the “diuretic effect (urine production)” value is listed as “instant diuretic effect”. Further, in series [4] (elimination monitored for 48 hours), the “half-life compared with conventional thiazide-based diuretics such as epithiazide and hydrochlorothiazide” value is reported as “about twice as long”. The “biological half-life (relative to epithiazide)” value in series [2] (compound found after administration of epithiazide) is on record as “longer biological half-life”.
